Test results taken from patent US7141560B2, “Alanine 2,6-dialkoxyphenyl ester derivatives as hypnotics” (Akzo Nobel N.V., priority 2001, dated 2006).

Tested on: mice
Assay: Hypnotic activity: loss of righting reflex after intravenous injection in mice
Type: in vivo
Settings: Mus musculus, intravenous injection over 10 seconds, dose causing loss of righting reflex for minimum 30 seconds in 50% of treated mice, read-out: HD50 (hypnotic dose50)
Experimental: The hypnotic potency of the alanine 2,6-dialkoxyphenyl ester derivatives of the invention was determined upon their intravenous administration in mice. The dose required to cause a loss of righting reflex for a minimum period of 30 seconds in 50% of treated mice after intravenous injection over 10 seconds was determined. This dose is termed the HD50 (hypnotic dose50) and is expressed in μmol.kg^−1. These in vivo experiments were carried out as described in detail by Anderson et al., J. Med. Chem. 1997, 40, 1668–1681.

Compound COC[C@H](C(=O)Oc1c(OC)cccc1OC)N1CCCOCC1 [Example 52a, 2R-[4-(Hexahydro-1-oxazepinyl)]-3-methoxypropionic acid, 2,6-dimethoxyphenyl ester] has an ED50 of 16 µmol/kg.

Same assay, conditions: intravenous injection over 10 seconds, dose causing loss of righting reflex for minimum 30 seconds in 50% of treated mice

In order of falling “HD50 (hypnotic dose50)” value:
1. COC(=O)CCC(C(=O)Oc1c(OC)cccc1OC)N1CCCCC1.Cl (centres unmarked) [Example 47a, Pentanedioic acid, 2-(1-piperidinyl)-, 1-(2,6-dimethoxyphenyl)ester, 5-methyl ester hydrochloride (1:1) salt]  50 µmol/kg
2. COC(=O)CCC(C(=O)Oc1c(OC)cc(C)cc1OC)N1CCCC1.Cl (centres unmarked) [Example 49a, Pentanedioic acid, 2-(1-pyrrolidinyl)-, 1-(2,6-dimethoxy4-methylphenyl)-ester, 5-methyl ester hydrochloride (1:1) salt]  50 µmol/kg
3. COC(=O)CCC(C(=O)Oc1c(OC)cc(C)cc1OC)N1CCCCC1.Cl (centres unmarked) [Example 49b, Pentanedioic acid, 2-(1-piperidinyl)-, 1-(2,6-dimethoxy-4-methylphenyl)ester, 5-methyl ester hydrochloride (1:1) salt]  47 µmol/kg
4. COC(=O)CCC(C(=O)Oc1c(OC)cccc1OC)N1CCSCC1.Cl (centres unmarked) [Example 47c, Pentanedioic acid, 2-(N-thiomorpholinyl)-, 1-(2,6-dimethoxyphenyl)ester, 5-methyl ester hydrochloride (1:1) salt]  44 µmol/kg
5. COc1cccc(OC)c1OC(=O)C(CCSC)N1CCCC1 (centres unmarked) [Example 40b, Butanoic acid, 4-(methylthio)-2-(1-pyrrolidinyl)-, 1-(2,6-dimethoxyphenyl)ester]  40 µmol/kg
6. CCOCCN(CCOCC)C(CCC(=O)OC)C(=O)Oc1c(OC)cc(C)cc1OC.Cl (centres unmarked) [Example 50]  40 µmol/kg
7. COC[C@@H](C(=O)Oc1c(OC)cccc1OC)N1CCCOCC1 [Example 52b, 2S-[4-(Hexahyro-1-oxazepinyl)]-3-methoxypropionic acid ,2,6-dimethoxyphenyl ester]  40 µmol/kg
8. COc1cc(C)cc(OC)c1OC(=O)C(CCS(C)(=O)=O)N1CC=CCC1 (centres unmarked) [Example 43, Butanoic acid, 4-(methylsulphonyl)-2-(1-[1,2,3,6-tetrahydropyridinyl])-, 1-(2,6-dimethoxy-4-methylphenyl)ester]  39 µmol/kg
9. COCCN(CCOC)C(CCC(=O)OC)C(=O)Oc1c(OC)cccc1OC.Cl (centres unmarked) [Example 48, Pentanedioic acid, 2-[bis-(2-methoxyethyl)amino]-, 1-(2,6-dimethoxyphenyl)ester, 5-methyl ester hydrochloride (1:1) salt]  37 µmol/kg
10. COC(=O)CCC(C(=O)Oc1c(OC)cccc1OC)N1CCCCCC1.Cl (centres unmarked) [Example 47b, Pentanedioic acid, 2-(1-hexahydroazepinyl)-, 1-(2,6-dimethoxyphenyl)ester, 5-methyl ester hydrochloride (1:1) salt]  36 µmol/kg
11. COCCN(CCOC)C(COC)C(=O)Oc1c(OC)cc(C)cc1OC (centres unmarked) [Example 51d, (ξ)-2-[N-Bis(2-methoxyethyl)amino]-3-methoxypropionic acid, 2,6-dimethoxy-4-methylphenyl ester]  36 µmol/kg
12. COc1cccc(OC)c1OC(=O)C(CCSC)N1CCCCCCC1 (centres unmarked) [Example 40d, Butanoic acid, 2-(1-hexahydroazocinyl)-4-(methylthio), 1-(2,6-dimethoxyphenyl)ester]  35 µmol/kg
13. COCCC(C(=O)Oc1c(OC)cccc1OC)N1CCCOCC1 (centres unmarked) [Example 51b, (ξ)-2-[4-(Hexahydro-1-oxazepinyl)]-4-methoxybutyric acid,2,6-dimethoxyphenyl ester]  30 µmol/kg
14. COCCN(CCOC)C(COC)C(=O)Oc1c(OC)cc(C)cc1OC (centres unmarked) [Example 51c, (ξ)-2-[N-Bis(2-methoxyethyl)amino]-3-methoxypropionic acid, 2,6-dimethoxy-4-methylphenyl ester]  24 µmol/kg
15. COc1cccc(OC)c1OC(=O)C(CCSC)N1CCCCCC1 (centres unmarked) [Example 40c, Butanoic acid, 2-(1-hexahydroazepinyl)-4-(methylthio), 1-(2,6-dimethoxyphenyl)ester]  18 µmol/kg
16. COCCC(C(=O)Oc1c(OC)cccc1OC)N1CCCOCC1 (centres unmarked) [Example 51a, (ξ)-2-[4-(Hexahydro-1-oxazepinyl)]-4-methoxybutyric acid,2,6-dimethoxyphenyl ester]  15 µmol/kg
